Measured values: publication PMC7433010, “Exploration of multi‐target effects of 3‐benzoyl‐5‐hydroxychromen‐2‐one in Alzheimer’s disease cell and mouse models” (Aging Cell, 2020)

How the values were obtained:
[1] = tested on: ∆K280 TauRD‐DsRed‐expressing SH‐SY5Y cells; test: Neurite outgrowth analysis in ∆K280 TauRD‐DsRed SH‐SY5Y cells; assay type: cell-based, human; details: 1 µM
Procedure: On day 1, ∆K280 TauRD-DsRed-expressing SH-SY5Y cells were seeded on a 24-well plate in a density of 3 × 10^4 cells/well, with 10 µM retinoic acid (Sigma-Aldrich) added to induce neuronal differentiation. On the second day, the cells were treated with licochalcone A (1 µM), LM-031 (1 µM), or congo red (10 µM) for 8 h and ∆K280 TauRD-DsRed expression was induced as described. After seven days, the cells were washed with phosphate-buffered saline (PBS) and fixed in 4% paraformaldehyde in PBS for 15 min. After permeabilized with 0.1% Triton X-100 in PBS for 10 min and blocked by 3% BSA in PBS for 20 min, cells were stained with primary neuronal class III β-tubulin (TUBB3) antibody (1:1000; Covance, Princeton, NJ, USA) at 4°C overnight and secondary anti-rabbit Alexa Fluor ®555 antibody (1:1000; Invitrogen) at room temperature for 3 h. After nuclei were stained with DAPI for 30 min, neuronal images were captured using the high-content imaging system as described and analyzed using the Neurite Outgrowth Application Module (Molecular Devices).
To knock down CREB expression in ∆K280 TauRD-DsRed SH-SY5Y cells, lentiviral short hairpin RNA (shRNA) targeting CREB (TRCN0000226466), NRF2 (TRCN0000007558), and a negative control scrambled (TRC2.Void) were obtained from National RNAi Core Facility, IMB/GRC, Academia Sinica, Taipei, Taiwan. On day 1, cells were plated on 6-well plates (for protein analysis) or 24-well plates (for neurite outgrowth analysis) in the presence of retinoic acid as described. On the second day, the cells were infected with lentivirus (multiplicity of infection: 3) in medium with polybrene (8 µg/mL; Sigma-Aldrich). On day 3, the culture medium was changed and the cells were pretreated with LM-031 (1 µM) for 8 h, followed by induction of ∆K280 TauRD-DsRed expression. On day 9, the cells were collected for NRF2, CREB, pCREB, and cleaved CASP3 protein analysis or analyzed for neurite outgrowth as described.

[2] = tested on: NeuN; test: Immunohistochemistry of NeuN in hippocampus of STZ‐treated 3 × Tg‐AD mice; assay type: in vivo, mouse; details: – STZ 100%
Procedure: (§1) Mice harboring APPSwe, PS1M146V, and […] transgenes (3×Tg-AD) (Oddo et al., 2003) were purchased from the Jackson Laboratory (004807; Bar Harbor, ME, USA). Six-month-old male homozygous 3×Tg-AD mice were group housed at 20–25°C and 60% relative humidity under a daily 12-h light/12-h dark cycle, with assess to food and water ad libitum. Mice were randomly divided into 3 groups: – streptozocin (STZ), STZ, and STZ/LM-031 (n = 10 per group). STZ-induced hyperglycemia was used to accelerate the development of AD phenotype (Chen et al., 2014). Briefly, the mice were fasted for 12 h each day prior to intraperitoneal (i.p.) injection of STZ ([…]; Sigma-Aldrich) or vehicle (0.1 M sodium citrate pH4.5) for 4 times (days 2, 3, 9, and 10) (Chen et al., 2019). Mouse body weight was measured and blood glucose level was measured on days 1, 8, 15, 22, and 29 using a blood glucose meter (Bioland Technology, Taipei, Taiwan). LM-031 (40 mg/kg) or vehicle (DMSO:Cremophor EL:0.9% saline = 1:2:7) was intraperitoneally injected every day for 22 days from days 15 to 36. All animal procedures were ethically approved by the Institutional Animal Care and Use Committee of National Taiwan Normal University, Taipei, Taiwan (Permit Number: 103002) and were conducted in compliance with the ARRIVE (Animal Research: Reporting In Vivo Experiments) guidelines.
Mouse brains were removed, postfixed in 4% paraformaldehyde overnight, and cryopreserved in 30% sucrose solution at 4°C. Series of coronal brain sections (30 µm) were cut in a cryostat (Leica RM2125 RTS, Leica, Wetzlar, Germany). Heat-induced antigen retrieval for immunohistochemistry (IHC) was performed using antigen retrieval buffer (pH9.0, Thermo Fisher Scientific) to break methylene bridges and expose antigenic sites, allowing antibodies to bind. […] The sections were then washed and detected by using the UltraVision™ Quanto detection system containing horseradish peroxidase and chromogenic diaminobenzidine substrate (Thermo Fisher Scientific). […]

[3] = tested on: pCREB; test: Western blot of pCREB in hippocampus of STZ‐treated 3 × Tg‐AD mice; assay type: in vivo, mouse; details: STZ 68%, – STZ 100%
Procedure: In addition, isolated hippocampal and cortex tissues from transgenic mice (as described in Animal studies) were homogenized and extracted proteins (10 µg) were separated and blotted. After being blocked, the membranes were probed with antibody against mouse NRF2 (1:500; Sigma-Aldrich), CREB (1:500; Millipore), pCREB (S133) (1:1000; Millipore), or GAPDH (1:1000; MDBio), and the immune complexes detected as described above.
as §1, with “LM-031 (40 mg/kg) or vehicle (DMSO:Cremophor EL:0.9% saline = 1:2:7) was intraperitoneally injected every day for 22 days from days 15 to 36. All animal procedures were ethically approved by the Institutional Animal Care and Use Committee of National Taiwan Normal University, Taipei, Taiwan (Permit Number: 103002) and were conducted in compliance with the ARRIVE (Animal Research: Reporting In Vivo Experiments) guidelines.” left out

O=C(c1ccccc1)c1cc2c(O)cccc2oc1=O [LM‐031, 3‐benzoyl‐5‐hydroxychromen‐2‐one]
neurite length ([1]; CREB‐specific shRNA‐infected cells, untreated 46 µm): 51 µm
neurite length ([1]; NRF2‐specific shRNA‐infected cells, untreated 42 µm): 46 µm
neurite length ([1]; scrambled shRNA‐infected cells, untreated 48 µm): 53 µm
NeuN level, CA1 ([2]; STZ 89%): 96%
NeuN level, dentate gyrus (DG) ([2]; STZ 90%): 97%
NeuN level, CA3 ([2]; STZ 91%): 95%
pCREB level in hippocampus [3]: 110%
